Test results taken from patent US10023570B2 (Array BioPharma, Inc., priority 2015, dated 2018).
pIC50: −log10 of the molar value. Where a name gives a salt, the structure may show the parent alone.

Each compound was assayed against human KDR protein in HEK-293 cells (Homo sapiens (Human), UniProt P35968) (assay: KDR Cell Assay (phospho-KDR in HEK-293 cells expressing inducible KDR)). Conditions: pKDR Cell HEK 10% FBS IC50, HEK-293 cells expressing inducible KDR, VEGF stimulated.
Assay type: cell-based
Summary of the method: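 HEK-293 cells with inducible human KDR were treated with compound for 1 h in DMEM (0.25% DMSO final), then lysed. Phospho-KDR was quantified by Meso Scale immunoassay, expressed as percent of control, and IC50 taken where a 4-parameter logistic fit crossed 50 POC.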

human KDR protein in HEK-293 cells, sequence (P35968 20-1356): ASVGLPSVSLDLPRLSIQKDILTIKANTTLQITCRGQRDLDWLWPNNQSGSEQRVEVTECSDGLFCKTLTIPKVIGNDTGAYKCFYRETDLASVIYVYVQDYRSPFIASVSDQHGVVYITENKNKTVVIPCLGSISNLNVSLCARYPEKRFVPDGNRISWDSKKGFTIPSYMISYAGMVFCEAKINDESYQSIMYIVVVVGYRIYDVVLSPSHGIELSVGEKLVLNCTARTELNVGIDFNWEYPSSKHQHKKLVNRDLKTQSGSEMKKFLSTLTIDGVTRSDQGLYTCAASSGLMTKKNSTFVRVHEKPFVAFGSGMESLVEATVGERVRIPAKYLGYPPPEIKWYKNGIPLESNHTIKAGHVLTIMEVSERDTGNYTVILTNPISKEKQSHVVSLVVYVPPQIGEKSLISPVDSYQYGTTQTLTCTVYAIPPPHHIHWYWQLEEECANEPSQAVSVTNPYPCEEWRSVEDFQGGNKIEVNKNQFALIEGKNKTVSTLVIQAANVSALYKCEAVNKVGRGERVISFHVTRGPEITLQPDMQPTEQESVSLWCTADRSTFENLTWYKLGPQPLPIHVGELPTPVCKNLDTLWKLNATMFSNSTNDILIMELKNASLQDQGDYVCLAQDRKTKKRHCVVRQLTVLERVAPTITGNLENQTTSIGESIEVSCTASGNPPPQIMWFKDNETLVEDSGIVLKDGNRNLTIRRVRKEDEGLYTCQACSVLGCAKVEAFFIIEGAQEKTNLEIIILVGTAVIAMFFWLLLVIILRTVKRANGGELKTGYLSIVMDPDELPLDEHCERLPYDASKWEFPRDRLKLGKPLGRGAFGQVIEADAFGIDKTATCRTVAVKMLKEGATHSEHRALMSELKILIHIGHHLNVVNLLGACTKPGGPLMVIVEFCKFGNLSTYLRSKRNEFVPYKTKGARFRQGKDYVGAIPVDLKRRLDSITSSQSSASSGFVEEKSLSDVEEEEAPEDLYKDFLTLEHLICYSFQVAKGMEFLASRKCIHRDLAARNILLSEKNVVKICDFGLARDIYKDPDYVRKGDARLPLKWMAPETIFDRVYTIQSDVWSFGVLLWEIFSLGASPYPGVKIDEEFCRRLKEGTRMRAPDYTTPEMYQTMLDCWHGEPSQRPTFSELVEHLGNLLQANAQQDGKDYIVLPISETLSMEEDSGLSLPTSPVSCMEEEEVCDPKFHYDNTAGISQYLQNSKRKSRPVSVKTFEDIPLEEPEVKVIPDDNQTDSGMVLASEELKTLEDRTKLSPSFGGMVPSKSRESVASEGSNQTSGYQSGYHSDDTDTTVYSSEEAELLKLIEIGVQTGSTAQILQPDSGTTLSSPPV

Row | pIC50 | SMILES
1 | 5.77 | CO[C@H]1CCN(C(=O)N2CCN(c3ccc(-c4cc(-c5cnn(C)c5)cn5ncc(Cl)c45)cn3)CC2)C1 [Example 645, (S)-(4-(5-(3-chloro-6-(1-methyl-1H-pyrazol-4-yl)pyrazolo[1,5-a]pyridin-4-yl)pyridin-2-yl)piperazin-1-yl)(3-methoxypyrrolidin-1-yl)methanone]
2 | 6.34 | Cn1cc(-c2cc(-c3ccc(N4CCC5(CC4)CN(C(=O)OC4CCCC4)C5)nc3)c3c(C#N)cnn3c2)cn1 [Example 499, Cyclopentyl 7-(5-(3-cyano-6-(1-methyl-1H-pyrazol-4-yl)pyrazolo[1,5-a]pyridin-4-yl)pyridine-2-yl)-2,7-diazaspiro[3.5]nonane-2-carboxylate]
3 | 5.83 | COCCN1CCN(c2ccc(-c3cc(-c4cnn(C)c4)cn4ncc(C#N)c34)cn2)CC1 [Example 396, 4-(6-(4-(2-methoxyethyl)piperazin-1-yl)pyridin-3-yl)-6-(1-methyl-1H-pyrazol-4-yl)pyrazolo[1,5-a]pyridine-3-carbonitrile]

More lines, now with the values behind:

Row | SMILES | pIC50
4 | Cn1cc(-c2cc(-c3ccc(N4CCN(Cc5ccccc5)CC4)nc3)c3c(C#N)cnn3c2)c(C2CC2)n1 [Example 619, 4-(6-(4-benzylpiperazin-1-yl)pyridin-3-yl)-6-(3-cyclopropyl-1-methyl-1H-pyrazol-4-yl)pyrazolo[1,5-a]pyridine-3-carbonitrile] | ≤ 5.30
5 | Cn1cc(-c2cc(-c3ccc(N4CCC5(CNC5)C4)nc3)c3c(C#N)cnn3c2)cn1 [Example 549, 4-(6-(2,6-diazaspiro[3.4]octan-6-yl)pyridin-3-yl)-6-(1-methyl-1H-pyrazol-4-yl)pyrazolo[1,5-a]pyridine-3-carbonitrile dihydrochloride] | 6.01
6 | Cc1c(CN2CCN(c3ccc(-c4cc(-c5cnn(C)c5)cn5ncc(C#N)c45)cn3)CC2)cnn1C [Example 435, 4-(6-(4-((1,5-dimethyl-1H-pyrazol-4-yl)methyl)piperazin-1-yl)pyridin-3-yl)-6-(1-methyl-1H-pyrazol-4-yl)pyrazolo[1,5-a]pyridine-3-carbonitrile] | 5.88
7 | Cn1cc(-c2cc(-c3ccc(N4CCN(Cc5ccncc5F)CC4)nc3)c3c(C#N)cnn3c2)cn1 [Example 434, 4-(6-(4-((3-fluoropyridin-4-yl)methyl)piperazin-1-yl)pyridin-3-yl)-6-(1-methyl-1H-pyrazol-4-yl)pyrazolo[1,5-a]pyridine-3-carbonitrile] | 5.77
8 | C[C@@H](c1ccccc1)N1CCN(c2ccc(-c3cc(-c4cnn(C)c4)cn4ncc(C#N)c34)cn2)CC1 [Example 422, (S)-6-(1-methyl-1H-pyrazol-4-yl)-4-(6-(4-(1-phenylethyl)piperazin-1-yl)pyridine-3-yl)pyrazolo[1,5-a]pyridine-3-carbonitrile dihydrochloride] | 6.03

Same assay, conditions: pKDR Cell HEK 10% FBS IC50, HEK-293 cells expressing inducible KDR, VEGF stimulated, 10% FBS

Row | pIC50 | SMILES
9 | 6.06 | Cn1cc(-c2cc(-c3ccc(N4CCN(C(=O)N5CCC[C@H]5C#N)CC4)nc3)c3c(C#N)cnn3c2)cn1 [Example 112, (S)-4-(6-(4-(2-cyanopyrrolidine-1-carbonyl)piperazin-1-yl)pyridin-3-yl)-6-(1-methyl-1H-pyrazol-4-yl)pyrazolo[1,5-a]pyridine-3-carbonitrile]
10 | 6.10 | Cn1cc(-c2cc(-c3ccc(N4CCN(C(=O)C5CC5)CC4)nc3)c3c(C#N)cnn3c2)cn1 [Example 68, 4-(6-(4-(cyclopropanecarbonyl)piperazin-1-yl)pyridin-3-yl)-6-(1-methyl-1H-pyrazol-4-yl)pyrazolo[1,5-a]pyridine-3-carbonitrile]
11 | 6.05 | CO[C@H]1C[C@H](NC(=O)C2CCN(c3ccc(-c4cc(-c5cnn(C)c5)cn5ncc(C#N)c45)cn3)CC2)C1 [Example 240, 1-(5-(3-cyano-6-(1-methyl-1H-pyrazol-4-yl)pyrazolo[1,5-a]pyridin-4-yl)pyridin-2-yl)-N-((1r,3r)-3-methoxycyclobutyl) piperidine-4-carboxamide]
12 | 5.77 | Cn1cc(-c2cc(-c3ccc(N4CCN(C(=O)N5CCCC(F)(F)C5)CC4)nc3)c3c(C#N)cnn3c2)cn1 [Example 94, 4-(6-(4-(3,3-difluoropiperidine-1-carbonyl)piperazin-1-yl)pyridin-3-yl)-6-(1-methyl-1H-pyrazol-4-yl)pyrazolo[1,5-a]pyridine-3-carbonitrile]
13 | 6.25 | Cn1cc(-c2cc(-c3ccc(N4CCC(NC(=O)[C@@H]5CCCO5)CC4)nc3)c3c(C#N)cnn3c2)cn1 [Example 182, (5)-N-(1-(5-(3-cyano-6-(1-methyl-1H-pyrazol-4-yl)pyrazolo[1,5-a]pyridin-4-yl)pyridin-2-yl)piperidin-4-yl)tetrahydrofuran-2-carboxamide]

Second part, the compound before the results:

Row | SMILES | pIC50
14 | Cn1ccc(-c2cc(-c3ccc(N4CCN(C(=O)CC(C)(C)C)CC4)cc3)c3c(C#N)cnn3c2)n1 [Example 309, 4-(4-(4-(3,3-dimethylbutanoyl)piperazin-1-yl)phenyl)-6-(1-methyl-1H-pyrazol-3-yl)pyrazolo[1,5-a]pyridine-3-carbonitrile] | 5.32
15 | Cn1cc(-c2cc(-c3ccc(N4CCN(C(=O)C[C@@H](O)c5ccccc5)CC4)nc3)c3c(C#N)cnn3c2)cn1 [Example 7, (R)-4-(6-(4-(3-hydroxy-3-phenylpropanoyl)piperazin-1-yl)pyridin-3-yl)-6-(1-methyl-1H-pyrazol-4-yl)pyrazolo[1,5-a]pyridine-3-carbonitrile] | 6.94
16 | C[C@@H]([C@@H](O)c1ccccc1)N1CCN(c2ccc(-c3cc(-c4cnn(C)c4)cn4ncc(C#N)c34)cn2)CC1 [Example 149, 4-(6-(4-((1S,2S)-1-hydroxy-1-phenylpropan-2-yl)piperazin-1-yl)pyridin-3-yl)-6-(1-methyl-1H-pyrazol-4-yl)pyrazolo[1,5-a]pyridine-3-carbonitrile] | 6.25
17 | CC(C)CC(=O)N1CCN(c2ccc(-c3cc(-c4ccn(C)n4)cn4ncc(C#N)c34)cn2)CC1 [Example 273, 6-(1-methyl-1H-pyrazol-3-yl)-4-(6-(4-(3-methylbutanoyl)piperazin-1-yl)pyridin-3-yl)pyrazolo[1,5-a]pyridine-3-carbonitrile] | 5.67
18 | Cn1cc(-c2cc(-c3ccc(N4CCN(C(=O)C(CO)c5ccccc5)CC4)nc3)c3c(C#N)cnn3c2)cn1 (stereo not drawn) [Example 16, 4-(6-(4-(3-hydroxy-2-phenylpropanoyl)piperazin-1-yl)pyridin-3-yl)-6-(1-methyl-1H-pyrazol-4-yl)pyrazolo[1,5-a]pyridine-3-carbonitrile] | 6.36
19 | Cn1cc(-c2cc(-c3ccc(N4CCN(C(=O)C5(c6ccc(Cl)cc6)CC5)CC4)nc3)c3c(C#N)cnn3c2)cn1 [Example 341, 4-(6-(4-(1-(4-chlorophenyl)cyclopropanecarbonyl)piperazin-1-yl)pyridin-3-yl)-6-(1-methyl-1H-pyrazol-4-yl)pyrazolo[1,5-a]pyridine-3-carbonitrile] | 6.62
20 | Cn1cc(-c2cc(-c3ccc(N4CCN(C(=O)[C@@H](O)c5ccccc5)CC4)nc3)c3c(C#N)cnn3c2)cn1 [Example 6, (S)-4-(6-(4-(2-hydroxy-2-phenylacetyl)piperazin-1-yl)pyridin-3-yl)-6-(1-methyl-1H-pyrazol-4-yl)pyrazolo[1,5-a]pyridine-3-carbonitrile] | 6.94
21 | Cn1cc(-c2cc(-c3ccc(N4CCN(C(=O)[C@@H](N)c5ccccc5)CC4)nc3)c3c(C#N)cnn3c2)cn1 [Example 50, (S)-4-(6-(4-(2-amino-2-phenylacetyl)piperazin-1-yl)pyridin-3-yl)-6-(1-methyl-1H-pyrazol-4-yl)pyrazolo[1,5-a]pyridine-3-carbonitrile bis(2,2,2-trifluoroacetate)] | 5.92
